The test system of data set [1] is A375 melanoma. As to the kind of experiment: Cell viability, crystal violet (CV) assay, A375. The following applies: Homo sapiens, A-375; 72 h, mean ± SD. It is filed as cell-based. As for the experimental part:
(§1) Five human cell lines (A375 melanoma, A549 lung adenocarcinoma, HCT116 and HT29 colorectal carcinoma, MDA-MB-231 triple-negative breast adenocarcinoma) were used to study the antitumor effects of the di-tert-butylphenols and their respective carborane analogs. All selected cell lines were derived from inflammation-associated tumors.
(§2) After the incubation period, the supernatant was discarded from the wells, and the cells were washed two times with 200 µL of PBS. Next, MTT solution at a final concentration of 0.5 mg/mL was added and incubated at 37 °C until purple formazan crystals were formed (30 min to one hour). After incubation, the dye was discarded. In order to dissolve the formed formazan crystals DMSO was added, and the absorbance was measured at λmax = 540 nm, with the reference/background wavelength of 670 nm. All results are expressed as a percentage of the control value which was arbitrary set to 100%. After 72 h treatment, cells were washed with 200 µL of PBS and fixed with 4% paraformaldehyde (PFA) for 15 min at room temperature (RT). Next, cells were stained with 1% CV solution. After 20 min, cells were washed in tap water and dried on air. Dye was dissolved in 33% acetic acid and the absorbance was measured at λmax = 540 nm, with the reference/background wavelength of 670 nm. Results were expressed as a percentage of the control value which was arbitrary set to 100%.
(§3) 1. General methods, materials, and procedures
(§4) 1.1.1. Reagents and cells
(§5) Reagents and cells were obtained from following manufacturers: Capricorn Scientific GmbH (Hessen, Germany) – Culture medium RPMI-1640, Dulbecco's Modified Eagle Medium (DMEM), and fetal bovine serum (FBS). Serva (Heidelberg, Germany) – Paraformaldehyde (PFA). Sigma (St. Louis, MO, USA) – Ethylenediaminetetraacetic acid (EDTA), Dimethyl sulfoxide (DMSO), chloroquine, CV, Triton X-100, RNase, PI, PBS, 3-MA, CFSE, and fluorescent mounting medium. AppliChem (MO, USA) –MTT. Thermo Fisher Scientific (Waltham, MA, USA) – DHR. R&D Systems (Minneapolis, MN, USA) – ApoStat. BD (Pharmingen, San Diego, SAD) – Annexin V-FITC (AnnV). Biological Industries (Cromwell, CT, USA) – Penicillin Streptomycin solution. […]
(§6) Afterwards, cells were washed with phosphate-buffered saline (PBS) and stained with AnnV (15 μg/mL) and PI (15 μg/mL). After 15 min incubation at room temperature (RT) protected from light the cells were resuspended in AnnV-binding buffer and analysed using flow cytom-etry. HCT116 cells were incubated with pan-caspase inhibitor Apostat for 30 min at 37 °C to determine whether detected apoptosis was mediated by caspase activation. Afterwards, cells were washed with PBS and analyzed using flow cytometry. […] Afterwards cells were washed with PBS, resuspended and analyzed by flow cytometry (CyFlow® Space Partec using the PartecFloMax® software

A further data set addresses T1, ovine COX-1 (Ovis aries, UniProt P05979).
T1 construct: purchased Cayman Chemical Company
T1 sequence (P05979 25-600): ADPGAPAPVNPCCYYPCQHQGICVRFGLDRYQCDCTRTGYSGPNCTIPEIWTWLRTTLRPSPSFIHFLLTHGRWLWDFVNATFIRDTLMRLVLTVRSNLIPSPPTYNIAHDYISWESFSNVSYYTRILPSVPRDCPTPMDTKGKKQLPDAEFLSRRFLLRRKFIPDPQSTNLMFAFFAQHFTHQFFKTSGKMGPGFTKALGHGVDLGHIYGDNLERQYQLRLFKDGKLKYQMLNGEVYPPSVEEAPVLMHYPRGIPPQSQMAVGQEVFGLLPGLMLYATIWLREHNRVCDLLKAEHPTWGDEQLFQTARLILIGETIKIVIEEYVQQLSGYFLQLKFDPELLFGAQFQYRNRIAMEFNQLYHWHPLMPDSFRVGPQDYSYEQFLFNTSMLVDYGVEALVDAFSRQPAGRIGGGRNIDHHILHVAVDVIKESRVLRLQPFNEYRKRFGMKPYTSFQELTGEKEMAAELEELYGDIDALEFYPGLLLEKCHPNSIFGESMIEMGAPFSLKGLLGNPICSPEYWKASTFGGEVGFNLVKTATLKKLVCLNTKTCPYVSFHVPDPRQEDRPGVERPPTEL
The experiment in a line: COX Fluorescent Inhibitor Screening Assay, COX-1. The conditions noted are these: in duplicate. It counts as biochemical. How it is done:
(§7) COX inhibition activity against ovine COX-1 and human COX-2 was determined using the fluorescence-based COX assay COX Fluorescent Inhibitor Screening Assay Kit (Cayman Chemical Company, Ann Arbor, MI, USA) according to the manufacturer’s instructions as previously reported by us. All compounds were screened at a concentration of 100 µM in duplicate.

For data set [2], the system named is HT-29 colorectal carcinoma. The experiment in a line: Cell viability, crystal violet (CV) assay, HT-29. It is filed as cell-based. The following applies: Homo sapiens, 72 h, mean ± SD. How it is done: as §1, §2, §3, §4, §5, §6
Data set [3] has as its system MDA-MB-231 triple-negative breast adenocarcinoma. As to the kind of experiment: Cell viability, MTT assay, MDA-MB-231. It is filed as cell-based, human. The following applies: Homo sapiens, MDA-MB-231; 72 h, mean ± SD. How it is done: as §1, §2, §3, §4
(§8) Reagents and cells were obtained from following manufacturers: Capricorn Scientific GmbH (Hessen, Germany) – Culture medium RPMI-1640, Dulbecco's Modified Eagle Medium (DMEM), and fetal bovine serum (FBS). Serva (Heidelberg, Germany) – Paraformaldehyde (PFA). Sigma (St. Louis, MO, USA) – Ethylenediaminetetraacetic acid (EDTA), Dimethyl sulfoxide (DMSO), chloroquine, CV, Triton X-100, RNase, PI, PBS, 3-MA, CFSE, and fluorescent mounting medium. AppliChem (MO, USA) –MTT. Thermo Fisher Scientific (Waltham, MA, USA) – DHR. R&D Systems (Minneapolis, MN, USA) – ApoStat. BD (Pharmingen, San Diego, SAD) – Annexin V-FITC (AnnV). Biological Industries (Cromwell, CT, USA) – Penicillin Streptomycin solution. American Type Culture Collection (ATCC, Manassas, Virginia, USA) – Human lung carcinoma (A549), human breast adenocarcinoma (MDA-MB-231), human colorectal ade-nocarcinoma (HT-29), human colorectal carcinoma (HCT116) and human melanoma (A375).
(§9) Cell lines (A375, HCT116, HT-29 and MDA-MB-231) were cultivated in HEPES-buffered RPMI-1640 medium while A549 cell line was cultivated in Dulbecco's Modified Eagle Medium (DMEM) which were previously supplemented with 10% heat-inactivated FBS, penicillin (100 units/mL), and streptomycin (100 μg/mL). All cells were kept at 37 °C in a humidified atmosphere with 5% CO2. For viability determi-nation cells were seeded at following densities in 96-well plates: 4 x 10^3 cells/well (A375, HT-29 and MDA-MB-231), 5 x 10^3 cells/well (HCT116), and 3 x 10^3 cells/well (A549). […]
(§10) Afterwards, cells were washed with phosphate-buffered saline (PBS) and stained with AnnV (15 μg/mL) and PI (15 μg/mL). After 15 min incubation at room temperature (RT) protected from light the cells were resuspended in AnnV-binding buffer and analysed using flow cytom-etry. HCT116 cells were incubated with pan-caspase inhibitor Apostat for 30 min at 37 °C to determine whether detected apoptosis was mediated by caspase activation. Afterwards, cells were washed with PBS and analyzed using flow cytometry. HCT116 cells were stained with 1 µg/mL of AO solution for 15 min at 37 °C to detect the presence of autophagic cell death. Afterwards cells were washed with PBS, resuspended and analyzed by flow cytometry (CyFlow® Space Partec using the PartecFloMax® software
In general terms: Tetrazolium assays rely on reduction of a dye to a coloured formazan, in cell work by metabolically active cells.

Data set [4] deals with A549 lung adenocarcinoma. As to the kind of experiment: Cell viability, MTT assay, A549. It is filed as cell-based, human. The conditions noted are these: Homo sapiens, A549; 72 h, mean ± SD. How it is done: as §1, §2, §3, §4, §8, §9, §10
Data set [5] has as its system HCT116 colorectal carcinoma. As to the kind of experiment: Cell viability, crystal violet (CV) assay, HCT116. It counts as cell-based. The conditions noted are these: Homo sapiens, HCT-116; 72 h, mean ± SD. As for the experimental part:
as §1, §2, §3, §4, §5, §6

Data set [6] relates to HCT116 colorectal carcinoma. As to the kind of experiment: Cell viability, MTT assay, HCT116. The following applies: Homo sapiens, HCT-116; 72 h, mean ± SD. It is filed as cell-based, human. How it is done:
as §1, §2, §3, §4, §8, §9
(§11) Afterwards, cells were washed with phosphate-buffered saline (PBS) and stained with AnnV (15 μg/mL) and PI (15 μg/mL). […]
(§12) PBS and analyzed using flow cytometry. HCT116 cells were stained with 1 µg/mL of AO solution for 15 min at 37 °C to detect the presence of autophagic cell death. Afterwards cells were washed with PBS, resuspended and analyzed by flow cytometry (CyFlow® Space Partec using the PartecFloMax® software

The subject of data set [7] is A549 lung adenocarcinoma. As to the kind of experiment: Cell viability, crystal violet (CV) assay, A549. It is filed as cell-based. The conditions noted are these: Homo sapiens, 72 h, mean ± SD. How it is done:
as §1, §2, §3, §4, §5, §6

A short description of another data set: physchem. The conditions noted are these: pH 7.4.
Data set [8] relates to A375 melanoma. As to the kind of experiment: Cell viability, MTT assay, A375. It is filed as cell-based, human. The conditions noted are these: Homo sapiens, A-375; 72 h, mean ± SD. As for the experimental part:
as §1, §2, §3, §4, §8, §9, §11, §12

The subject of data set [9] is HT-29 colorectal carcinoma. The experiment in a line: Cell viability, MTT assay, HT-29. The conditions noted are these: Homo sapiens, HT-29; 72 h, mean ± SD. It counts as cell-based, human. How it is done:
as §1, §2, §3, §4, §8, §9, §10

The target in a further data set is T2, human recombinant COX-2 (Homo sapiens, UniProt P35354).
T2 construct: purchased Cayman Chemical Company
T2 sequence (P35354 18-604): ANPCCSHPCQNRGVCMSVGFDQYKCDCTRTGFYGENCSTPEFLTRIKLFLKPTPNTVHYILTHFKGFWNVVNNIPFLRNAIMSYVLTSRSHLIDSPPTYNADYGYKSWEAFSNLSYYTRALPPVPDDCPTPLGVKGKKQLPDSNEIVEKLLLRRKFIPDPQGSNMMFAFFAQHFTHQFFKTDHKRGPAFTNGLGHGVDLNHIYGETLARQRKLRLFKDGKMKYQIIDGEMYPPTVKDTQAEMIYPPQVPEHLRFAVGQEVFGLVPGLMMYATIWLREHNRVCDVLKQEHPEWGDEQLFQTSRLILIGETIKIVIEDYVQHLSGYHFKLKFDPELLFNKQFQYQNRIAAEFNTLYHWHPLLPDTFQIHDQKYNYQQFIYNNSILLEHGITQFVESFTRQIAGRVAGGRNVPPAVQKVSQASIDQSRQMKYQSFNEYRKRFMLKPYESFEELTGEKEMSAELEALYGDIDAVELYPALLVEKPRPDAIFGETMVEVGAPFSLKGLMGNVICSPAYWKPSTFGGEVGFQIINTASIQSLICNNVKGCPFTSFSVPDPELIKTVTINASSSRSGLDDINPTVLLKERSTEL
As to the kind of experiment: COX Fluorescent Inhibitor Screening Assay, COX-2. The conditions noted are these: in duplicate. It is filed as biochemical. How it is done:
as §7

Data set [10] deals with MDA-MB-231 triple-negative breast adenocarcinoma. The experiment in a line: Cell viability, crystal violet (CV) assay, MDA-MB-231. It is filed as cell-based. The conditions noted are these: Homo sapiens, 72 h, mean ± SD. How it is done: as §1, §2, §3, §4, §5, §6
The conditions of data set [11]: served as references for the HPLC method; cited from earlier work.

Usually IC50 stands for the concentration at which inhibition is half-maximal. High values mean lower potency, low ones higher potency. A word on the inhibition: it is how much of the control response was suppressed. As usually defined, the chromatographic logD is a lipophilicity value derived from retention on a column. Consider `CCN1CC/C(=C\c2cc(C(C)(C)C)c(O)c(C(C)(C)C)c2)S1(=O)=O` [Compound S-2474, 2,6-Bis(1,1-dimethylethyl)-4-[(E)-(2-ethyl-1,1-dioxido-5-isothiazolidinylidene)methyl]phenol], for which the IC50 in the data set on A375 melanoma [1] worked out at 19.2 ± 0.7 µM; in data set [2], 23.8 ± 1.7 µM; in data set [3], 34.8 ± 1.7 µM; with A549 lung adenocarcinoma [4], 16.2 ± 1.2 µM; in data set [5], 23.7 ± 1.9 µM; in data set [6] it was 17.5 ± 1 µM. The IC50 turned out to be 17.9 ± 1.2 µM in the data set with A549 lung adenocarcinoma [7], 13.2 ± 2.7 µM in the data set with A375 melanoma [8], 16.1 ± 1.1 µM in [9] and 43.5 ± 1.8 µM in [10]. The inhibition at 100 µM turned out to be 38% against ovine COX-1 and 86% at human recombinant COX-2. This compound also displayed a chromatographic logD in “physchem” of 3.75.

In the case of `CC(C)(C)c1cc(C=C2CCOC2=O)cc(C(C)(C)C)c1O` [KME-4, 3-([3,5-bis(1,1-dimethylethyl)-4-hydroxyphenyl]methylene)dihydro-2(3H)-furanone], the IC50 was found to be 36.4 ± 1.3 µM in the data set on A375 melanoma [1]; 36.2 ± 1.9 µM in [2]; 80.9 ± 7.3 µM in [3]; 21.9 ± 0.7 µM in the data set on A549 lung adenocarcinoma [4]; 36.2 ± 1.9 µM in data set [5]; 18.4 ± 4.6 µM in data set [6]. The IC50 with A549 lung adenocarcinoma [7] came out at 36.3 ± 2.8 µM; in the data set on A375 melanoma [8], 13.8 ± 0.6 µM; in [9], 18.5 ± 1.5 µM; in [10], 88.6 ± 2.4 µM. Further, the chromatographic logD in “physchem” stood at 3.79.

`CC1=C(C(=O)Nc2ccccc2)S(=O)(=O)CCO1` [Oxycarboxin]: the “logD7.4 of HPLC references” value in data set [11] is 1.13.

The values above are taken from paper PMC10254233, “Synthesis and In Vitro Biological Evaluation of p-Carborane-Based Di-tert-butylphenol Analogs” (Molecules, 2023).
